Laboratory results as given in patent publication US8471004B2, “Bicyclic compounds” (Hoffman-La Roche Inc., priority 2009, dated 2013).

The molecules below were run against T1, human chemokine receptor 2 isoform B (Homo sapiens, UniProt P41597) (assay: Calcium mobilization assay (CHOK1-CCR2B-A5 cells, FLIPR, MCP-1 stimulated)). Details: Ca mobilisation assay for CCR2, antagonist activity, 50% inhibition of specific calcium increases after 20 nM MCP-1.
T1 construct: host or cells: CHOK1-CCR2B-A5 (CHO-K1)
T1 sequence (P41597 1-360 isoform P41597-2): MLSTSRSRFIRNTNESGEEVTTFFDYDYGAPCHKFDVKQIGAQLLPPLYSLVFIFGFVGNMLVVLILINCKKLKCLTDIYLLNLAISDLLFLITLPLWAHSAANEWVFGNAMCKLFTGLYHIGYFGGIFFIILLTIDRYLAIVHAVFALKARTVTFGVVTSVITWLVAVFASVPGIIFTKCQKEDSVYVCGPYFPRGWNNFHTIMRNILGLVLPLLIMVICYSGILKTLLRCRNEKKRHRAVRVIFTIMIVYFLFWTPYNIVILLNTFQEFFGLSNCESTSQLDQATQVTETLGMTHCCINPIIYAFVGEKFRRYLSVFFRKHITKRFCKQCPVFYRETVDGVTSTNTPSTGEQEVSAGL
Assay type: cell-based
Experimental: CHOK1-CCR2B-A5 cells (from Euroscreen) stably overexpressing the human chemokine receptor 2 isoform B were cultured in Nutrient Hams F12 medium supplemented with 5% FBS, 100 U/ml penicillin, 100 μg/ml streptomycin, 400 μg/ml G418 and 5 μg/ml puromycin.
For the assay cells were grown overnight in 384-well black clear flat bottom polystyrene plates (Costar) at 37° C. at 5% CO2. After washing with DMEM, 20 mM Hepes, 2.5 mM probenecid, 0.1% BSA (DMEM assay buffer) cells were loaded with 4 μM Fluo-4 in the same DMEM assay buffer for 2 hours at 30° C. Excess dye was removed and cells were washed with DMEM assay buffer. 384-well compound plates were prepared with DMEM assay buffer/0.5% DMSO with or without various concentrations of test compounds. Usually compounds were tested for agonist and antagonist activity.
Test compounds were added to the assay plate and agonist activity was monitored as fluorescence for 80 seconds with a FLIPR (488 nm excitation; 510-570 nm emission; Molecular Devices). After 20-30 min. of incubation at 30° C., 20 nM MCP-1 (R&D; Roche) was added and fluorescence was monitored again for 80 seconds. Increases in intracellular calcium are reported as maximum fluorescence after agonist exposure minus basal fluorescence before exposure. Antagonist activity is indicated as inhibitor concentration required for 50% inhibition of specific calcium increases.
An IC50 of 8.8 nM was found for `C[C@H]1C(=O)N2[C@H](CCN3CCC4(CC4)[C@H](O)C3)CCC[C@@H]2CN1C(=O)Nc1ccc(Cl)c(Cl)c1` (racemic) [Example 38, (3S,9aR)-6-[2-((S)-4-Hydroxy-6-aza-spiro[2.5]oct-6-yl)-ethyl]-3-methyl-4-oxo-octahydro-pyrido[1,2-a]pyrazine-2-carboxylic acid (3,4-dichloro-phenyl)-amide] in this work.
An IC50 of 5.8 nM was found for `C[C@H]1C(=O)N2[C@@H](CCN3CCC4(CC4)[C@H](O)C3)CO[C@H]2CN1C(=O)Nc1ccc(Cl)c(Cl)c1` [Example 1, (3S,6S,8aS)-3-[2-((S)-4-Hydroxy-6-aza-spiro[2.5]oct-6-yl)-ethyl]-6-methyl-5-oxo-hexahydro-oxazolo[3,2-a]pyrazine-7-carboxylic acid (3,4-dichloro-phenyl)-amide] in this work.
An IC50 of 2.2 nM was found for `C[C@H]1C(=O)N2[C@@H](CCN3CCC4(CC4)[C@H](O)C3)CO[C@@H]2CN1C(=O)Nc1ccc(Cl)c(Cl)c1` [Example 2, (3S,6S,8aR)-3-[2-((S)-4-hydroxy-6-aza-spiro[2.5]oct-6-yl)-ethyl]-6-methyl-5-oxo-hexahydro-oxazolo[3,2-a]pyrazine-7-carboxylic acid (3,4-dichloro-phenyl)-amide] in this work.
An IC50 of 60.4 nM was found for `C[C@H]1C(=O)N2C(CN1C(=O)Nc1cccc(Cl)c1)OC[C@@H]2CCN1CCC2(CC2)[C@H](O)C1` (stereo partly drawn) [Example 3, (3S,6S)-3-[2-((S)-4-Hydroxy-6-aza-spiro[2.5]oct-6-yl)-ethyl]-6-methyl-5-oxo-hexahydro-oxazolo[3,2-a]pyrazine-7-carboxylic acid (3-chloro-phenyl)-amide] in this work.
An IC50 of 16 nM was found for `C[C@H]1C(=O)N2C(CN1C(=O)Nc1ccc(F)c(Cl)c1)OC[C@@H]2CCN1CCC2(CC2)[C@H](O)C1` (stereo partly drawn) [Example 4, (3S,6S)-3-[2-((S)-4-Hydroxy-6-aza-spiro[2.5]oct-6-yl)-ethyl]-6-methyl-5-oxo-hexahydro-oxazolo[3,2-a]pyrazine-7-carboxylic acid (3-chloro-4-fluoro-phenyl)-amide] in this work.
An IC50 of 67.9 nM was found for `C[C@H]1C(=O)N2C(CN1C(=O)Nc1cccc(C(F)(F)F)c1)OC[C@@H]2CCN1CCC2(CC2)[C@H](O)C1` (stereo partly drawn) [Example 5, (3S,6S)-3-[2-((S)-4-Hydroxy-6-aza-spiro[2.5]oct-6-yl)-ethyl]-6-methyl-5-oxo-hexahydro-oxazolo[3,2-a]pyrazine-7-carboxylic acid (3-trifluoromethyl-phenyl)-amide] in this work.
An IC50 of 72 nM was found for `C[C@H]1C(=O)N2[C@@H](CCN3CCC4(CC4)[C@H](O)C3)CO[C@H]2CN1C(=O)Nc1ccc(F)c(Cl)c1` [Example 6, (3S,6S,8aS)-3-[2-((S)-4-Hydroxy-6-aza-spiro[2.5]oct-6-yl)-ethyl]-6-methyl-5-oxo-hexahydro-oxazolo[3,2-a]pyrazine-7-carboxylic acid (3-chloro-4-fluoro-phenyl)-amide] in this work.
An IC50 of 25 nM was found for `C[C@H]1C(=O)N2[C@@H](CCN3CCC4(CC4)[C@H](O)C3)CO[C@@H]2CN1C(=O)Nc1ccc(F)c(Cl)c1` [Example 7, (3S,6S,8aR)-3-[2-((S)-4-hydroxy-6-aza-spiro[2.5]oct-6-yl)-ethyl]-6-methyl-5-oxo-hexahydro-oxazolo[3,2-a]pyrazine-7-carboxylic acid (3-chloro-4-fluoro-phenyl)-amide] in this work.
An IC50 of 146 nM was found for `C[C@H]1C(=O)N2[C@@H](CCN3CCC4(CC4)[C@H](O)C3)CO[C@H]2CN1C(=O)Nc1cccc(C(F)(F)F)c1` [Example 8, (3S,6S,8aS)-3-[2-((S)-4-Hydroxy-6-aza-spiro[2.5]oct-6-yl)-ethyl]-6-methyl-5-oxo-hexahydro-oxazolo[3,2-a]pyrazine-7-carboxylic acid (3-trifluoromethyl-phenyl)-amide] in this work.
An IC50 of 68.9 nM was found for `C[C@H]1C(=O)N2[C@@H](CCN3CCC4(CC4)[C@H](O)C3)CO[C@@H]2CN1C(=O)Nc1cccc(C(F)(F)F)c1` [Example 9, (3S,6S,8aR)-3-[2-((S)-4-hydroxy-6-aza-spiro[2.5]oct-6-yl)-ethyl]-6-methyl-5-oxo-hexahydro-oxazolo[3,2-a]pyrazine-7-carboxylic acid (3-trifluoromethyl-phenyl)-amide] in this work.
An IC50 of 12 nM was found for `C[C@H]1C(=O)N2[C@@H](CCCN3CCC4(CC4)[C@H](O)C3)COC2(C)CN1C(=O)Nc1ccc(Cl)c(Cl)c1` (stereo partly drawn) [Example 12, (3S,6S)-3-[3-((S)-4-Hydroxy-6-aza-spiro[2.5]oct-6-yl)-propyl]-6,8a-dimethyl-5-oxo-hexahydro-oxazolo[3,2-a]pyrazine-7-carboxylic acid (3,4-dichloro-phenyl)-amide] in this work.
An IC50 of 12.7 nM was found for `C[C@H]1C(=O)N2[C@@H](CCCN3CCC4(CC4)[C@H](O)C3)COC2(C)CN1C(=O)Nc1ccc(C(F)(F)F)c(Cl)c1` (stereo partly drawn) [Example 13, (3S,6S)-3-[3-((S)-4-Hydroxy-6-aza-spiro[2.5]oct-6-yl)-propyl]-6,8a-dimethyl-5-oxo-hexahydro-oxazolo[3,2-a]pyrazine-7-carboxylic acid (3-chloro-4-trifluoromethyl-phenyl)-amide] in this work.
An IC50 of 11.1 nM was found for `C[C@H]1C(=O)N2[C@@H](CCN3CCC4(CC4)[C@H](O)C3)CO[C@]2(C)CN1C(=O)Nc1ccc(Cl)c(Cl)c1` [Example 14, (3S,6S,8aR)-3-[2-((S)-4-Hydroxy-6-aza-spiro[2.5]oct-6-yl)-ethyl]-6,8a-dimethyl-5-oxo-hexahydro-oxazolo[3,2-a]pyrazine-7-carboxylic acid (3,4-dichloro-phenyl)-amide] in this work.
An IC50 of 32.8 nM was found for `C[C@H]1C(=O)N2C(CN1C(=O)Nc1cccc(Cl)c1)OC[C@@H]2CCCN1CCC2(CC2)[C@H](O)C1` (stereo partly drawn) [Example 15, (3S,6S)-3-[3-((S)-4-Hydroxy-6-aza-spiro[2.5]oct-6-yl)-propyl]-6-methyl-5-oxo-hexahydro-oxazolo[3,2-a]pyrazine-7-carboxylic acid (3-chloro-phenyl)-amide] in this work.
An IC50 of 7.4 nM was found for `C[C@H]1C(=O)N2C(CN1C(=O)Nc1ccc(Cl)c(Cl)c1)OC[C@@H]2CCCN1CCC2(CC2)[C@H](O)C1` (stereo partly drawn) [Example 16, (3S,6S)-3-[3-((S)-4-Hydroxy-6-aza-spiro[2.5]oct-6-yl)-propyl]-6-methyl-5-oxo-hexahydro-oxazolo[3,2-a]pyrazine-7-carboxylic acid (3,4-dichloro-phenyl)-amide] in this work.
An IC50 of 2.9 nM was found for `C[C@H]1C(=O)N2[C@@H](CCCN3CCC4(CC4)[C@H](O)C3)CO[C@H]2CN1C(=O)Nc1ccc(Cl)c(Cl)c1` [Example 17, (3S,6S,8aS)-3-[3-((S)-4-Hydroxy-6-aza-spiro[2.5]oct-6-yl)-propyl]-6-methyl-5-oxo-hexahydro-oxazolo[3,2-a]pyrazine-7-carboxylic acid (3,4-dichloro-phenyl)-amide] in this work.
An IC50 of 10.2 nM was found for `C[C@H]1C(=O)N2[C@@H](CCCN3CCC4(CC4)[C@H](O)C3)CO[C@@H]2CN1C(=O)Nc1ccc(Cl)c(Cl)c1` [Example 18, (3S,6S,8aR)-3-[3-((S)-4-hydroxy-6-aza-spiro[2.5]oct-6-yl)-propyl]-6-methyl-5-oxo-hexahydro-oxazolo[3,2-a]pyrazine-7-carboxylic acid (3,4-dichloro-phenyl)-amide] in this work.
An IC50 of 33.4 nM was found for `C[C@H]1C(=O)N2[C@@H](CCCN3CCC4(CC4)[C@H](O)C3)CO[C@H]2CN1C(=O)Nc1cccc(Cl)c1` [Example 19, (3S,6S,8aS)-3-[3-((S)-4-Hydroxy-6-aza-spiro[2.5]oct-6-yl)-propyl]-6-methyl-5-oxo-hexahydro-oxazolo[3,2-a]pyrazine-7-carboxylic acid (3-chloro-phenyl)-amide] in this work.
An IC50 of 177 nM was found for `C[C@H]1C(=O)N2[C@@H](CCCN3CCC4(CC4)[C@H](O)C3)CO[C@@H]2CN1C(=O)Nc1cccc(Cl)c1` [Example 20, (3S,6S,8aR)-3-[3-((S)-4-hydroxy-6-aza-spiro[2.5]oct-6-yl)-propyl]-6-methyl-5-oxo-hexahydro-oxazolo[3,2-a]pyrazine-7-carboxylic acid (3-chloro-phenyl)-amide] in this work.
An IC50 of 3.8 nM was found for `C[C@H]1C(=O)N2[C@@H](CCCN3CCC4(CC4)[C@H](O)C3)CO[C@@]2(C)CN1C(=O)Nc1ccc(Cl)c(Cl)c1` [Example 21, (3S,6S,8aS)-3-[3-((S)-4-Hydroxy-6-aza-spiro[2.5]oct-6-yl)-propyl]-6,8a-dimethyl-5-oxo-hexahydro-oxazolo[3,2-a]pyrazine-7-carboxylic acid (3,4-dichloro-phenyl)-amide] in this work.
An IC50 of 27.4 nM was found for `C[C@H]1C(=O)N2[C@@H](CCCN3CCC4(CC4)[C@H](O)C3)CO[C@]2(C)CN1C(=O)Nc1ccc(Cl)c(Cl)c1` [Example 22, (3S,6S,8aR)-3-[3-((S)-4-hydroxy-6-aza-spiro[2.5]oct-6-yl)-propyl]-6,8a-dimethyl-5-oxo-hexahydro-oxazolo[3,2-a]pyrazine-7-carboxylic acid (3,4-dichloro-phenyl)-amide] in this work.
